# Results taken from paper PMC6934184, “Selective DNA-PKcs inhibition extends the therapeutic index of localized radiotherapy and chemotherapy” (The Journal of Clinical Investigation, 2019).
# Molecular target: T1, EIF2AK2 (PKR) (Homo sapiens, UniProt P19525)
# T1 construct: purchased Thermo Fisher Scientific (Life Technologies) SelectScreen
# Test: SelectScreen LanthaScreen
# Type: binding
# Conditions: 1 µM
# Outline: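 SelectScreen broad panel; activity (Z'LYTE, Adapta) plus binding formats. ATP: Km app for CSF1R Z'LYTE; 10 for CAMK1 Adapta. Readout = % per kinase.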
# T1 sequence (P19525 whole entry): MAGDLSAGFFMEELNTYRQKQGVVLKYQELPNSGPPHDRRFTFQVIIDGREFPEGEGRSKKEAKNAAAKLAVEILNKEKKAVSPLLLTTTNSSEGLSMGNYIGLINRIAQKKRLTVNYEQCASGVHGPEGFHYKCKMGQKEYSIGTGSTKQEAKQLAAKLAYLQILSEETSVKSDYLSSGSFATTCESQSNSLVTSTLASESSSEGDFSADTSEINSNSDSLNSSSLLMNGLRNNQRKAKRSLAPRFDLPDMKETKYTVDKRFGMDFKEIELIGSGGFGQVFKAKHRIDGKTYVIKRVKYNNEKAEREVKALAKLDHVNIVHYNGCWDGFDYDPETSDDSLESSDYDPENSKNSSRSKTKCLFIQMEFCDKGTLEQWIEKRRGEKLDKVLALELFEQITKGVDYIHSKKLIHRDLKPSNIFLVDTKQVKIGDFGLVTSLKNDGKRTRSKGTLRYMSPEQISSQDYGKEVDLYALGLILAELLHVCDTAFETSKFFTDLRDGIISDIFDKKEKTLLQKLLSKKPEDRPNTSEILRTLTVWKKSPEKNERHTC
smiles,measurement,value
CN(C(=O)CN1CCOCC1)c1ccc2sc3c(-c4cccc5c(=O)cc(N6CC7CCC(C6)O7)oc45)cccc3c2c1 [NU5455],% displacement,13.3%
